Measurements published in patent US8183256B2, “Remedy or preventive for integration dysfunction syndrome” (Toray Industries, Inc., priority 2008, dated 2012).

What was measured:
[1] = test system: PCP-induced hyperlocomotion; experiment: Mouse PCP-induced hyperlocomotion; type: in vivo; conditions: ddy male mice, PCP 10 mg/kg s.c.
[2] = test system: Prepulse Inhibition (PPI); experiment: Startle response in rat prepulse inhibition (PPI) model; type: in vivo; conditions: SD male rats
Description: Further, the fact that there is no risk, in the above-described compound or a pharmaceutically acceptable acid addition salt thereof, of causing impaired information processing related to cognitive deficiencies which is a symptom of schizophrenia can be confirmed by investigating the effect of the compound on the phenomenon wherein the startle response to a startle stimulus (pulse) in an animal is inhibited by presentation of a weak stimulus (prepulse) prior to presentation of a startle stimulus (pulse) (Prepulse Inhibition, PPI) according to the method described in Bio. Psychiatry., 57, 1550, 2005. In this method, inhibition of PPI indicates abnormality in information processing, and is known to reflect cognitive deficiencies, which is a symptom of schizophrenia, and the like.
In the experiments, 8 SD male rats of 9 to 10 weeks old were used per each group. The measurement was carried out using an apparatus for measuring startle responses of small animals (San Diego Instruments). […]

CN(C(=O)/C=C/c1ccoc1)[C@@H]1CC[C@@]2(O)[C@H]3Cc4ccc(O)c5c4[C@@]2(CCN3CC2CC2)[C@H]1O5.Cl [Compound 1, (−)-17-(Cyclopropylmethyl)-3,14β-Dihydroxy-4,5α-Epoxy-6β-[N-Methyl-Trans-3-(3-Furyl)Acrylamido]Morphinan Hydrochloric Acid Salt]
dose statistically significantly inhibiting PCP-induced hyperlocomotion ([1]; test compound s.c. 1 minute before PCP, locomotor counts, vs vehicle-administered group): ≥ 0.01 mg/kg
effect on PPI (% Prepulse Inhibition) ([2]; 0.03 mg/kg s.c., 30 minutes before stimulation session, 80 dB prepulse, 120 dB pulse): did not inhibit PPI

C=C1CC[C@@]2(O)[C@H]3Cc4ccc(O)c5c4[C@@]2(CCN3CC2CC2)[C@H]1O5 [Nalmefene]
effect on the amount of locomotion (PCP-induced hyperlocomotion) ([1]; test compound at 10 mg/kg s.c.): did not have any effect

c1ccc(C2(N3CCCCC3)CCCCC2)cc1 [Phencyclidine]
effect on PPI (% Prepulse Inhibition) ([2]; positive control at 4 mg/kg, p<0.05 against the vehicle-administered group): statistically significant inhibitory effect on PPI
